A short description of this test: Inhibition of tubulin polymerization.

The structures appear in SMILES notation. pIC50: −log10 of the molar value. Calls of active or inactive are those of the source. The rule behind the calls is not given here.

For `CCCCCc1c(C)c(O)cc(O)c1Oc1cc(OC)cc2c1C(=O)OC2CCCC` (stereo not drawn), the inhibition result is “inactive”.

As to `CCCCCc1cc(O)cc(O)c1Oc1cc(OC)cc2c1C(=O)OC2(O)CCCC` (stereo not drawn), the inhibition result is “inactive”.

As a reminder, the pIC50 is −log10 of the IC50, conventionally taken in molar units. Low readings indicate a high IC50, high ones a low IC50. For the molecule `CCCCCc1c2c(cc(O)c1C(=O)O)OC(=O)c1c(cc(OC)cc1C(=O)CCCC)O2` [LOBARIC ACID], the pIC50 is 4.00.

(Values after ChEMBL document CHEMBL1158446, “Antimitotic activity of lobaric acid and a new benzofuran, sakisacaulon A from Stereocaulon sasakii” (Bioorg Med Chem Lett, 2009).)
